Key:
Assay type in all cases: physicochemical
[1] = Dehydration reaction (lactam formation) when maintained in a dried state at 105° C.; settings: 105° C. over 2-3 hours
Procedure: To the contrary, in γ-aminobutyric acid derivatives having no or a less bulky substituent at the 3-position thereof, such as γ-aminobutyric acid or 4-amino-3-hydroxy-butanoic acid, the dehydration reaction is not brought about even when maintained in a dried state such as at a temperature of 105° C. over 2-3 hours, and the formation of 4-cyclohexylpyrrolidone (the corresponding lactam form) is not observed. In other words, in the 4-amino-3-substituted-butanoic acid derivative wherein the substituent at the 3-position thereof has a bulky structure, the dehydration reaction could easily be brought about between the amino group and the carboxyl group within the molecule.

[2] = Storage stability of baclofen samples: dehydrated condensates content by HPLC; settings: based on baclofen
Procedure: The baclofen powder samples G and H obtained as described above and untreated baclofen crystals were stored under the conditions as defined in the following Table 8 and then a content of dehydrated condensates formed in each of the samples was determined by means of HPLC. In this Example, the content of the dehydrated condensates is expressed in terms of % by weight, based on baclofen.

[3] = Storage stability of pregabalin samples: dehydrated condensate content by HPLC; settings: Table 9, based on pregabalin
Procedure: The samples I, J and K obtained as described above and untreated pregabalin crystals were stored under the conditions as defined in the following Table 9 and then a content of the dehydrated condensate formed in each of the samples was determined by means of HPLC. In the present Example and the following Example 6, a content of the dehydrated condensate is expressed in terms of % by weight, based on pregabalin.
The samples L and M obtained as described above were stored under the conditions as defined in the following Table 10 and then a content of the dehydrated condensate formed in each of the samples was determined by means of HPLC.

## NCC(O)CC(=O)O (stereo not drawn) [4-amino-3-hydroxy-butanoic acid]
[1]
  formation of 4-cyclohexylpyrrolidone (the corresponding lactam form): not observed

## NCC(CC(=O)O)c1ccc(Cl)cc1 (stereo not drawn) [Untreated Baclofen]
[2]; 60° C./1 week (sealed)
  content of dehydrated condensates: 0.36 % by weight
[2]; 60° C./2 weeks (sealed)
  content of dehydrated condensates: 0.57 % by weight
[2]; 60° C./3 weeks (sealed)
  content of dehydrated condensates: 0.70 % by weight
[2]; When Initiated
  content of dehydrated condensates: 0.10 % by weight

## CC(C)CC(CN)CC(=O)O (stereo not drawn) [Untreated Pregabalin, 5-methyl-3-aminomethyl-hexanoic acid]
[3]; 60° C./1 week (sealed)
  content of the dehydrated condensate: 0.001 % by weight
[3]; 60° C./2 weeks (sealed)
  content of the dehydrated condensate: 0.001 % by weight
[3]; When initiated
  content of the dehydrated condensate: <0.001 % by weight

## NCCCC(=O)O [γ-aminobutyric acid]
[1]
  formation of 4-cyclohexylpyrrolidone (the corresponding lactam form): not observed

From US8623407B2, “Gabapentin-containing solid compositions and process for preparing the same” (Pfizer Inc., priority 1998, dated 2014)
